Measurements as given in publication PMC6471201, “Discovery of Indoleamine 2,3-Dioxygenase 1 (IDO-1) Inhibitors Based on Ortho-Naphthaquinone-Containing Natural Product” (Molecules, 2019).

Tests used:
[1] = tested on: IDO-1; design: method as in PMID 30108982; settings: known inhibitors, Figure 1; cited from earlier work
[2] = molecular target: T1, hIDO-1 (Homo sapiens, UniProt P14902); assay: hIDO-1 enzymatic assay; assay type: biochemical; settings: mean ± SE of two independent experiments; for inhibition at 20 µM: 20 µM compound, read-out: Inhibitory Rate at 20 µM (enzymatic); for IC50: rhIDO-1, L-tryptophan substrate, 37 °C 30 min
T1 sequence (P14902 whole entry): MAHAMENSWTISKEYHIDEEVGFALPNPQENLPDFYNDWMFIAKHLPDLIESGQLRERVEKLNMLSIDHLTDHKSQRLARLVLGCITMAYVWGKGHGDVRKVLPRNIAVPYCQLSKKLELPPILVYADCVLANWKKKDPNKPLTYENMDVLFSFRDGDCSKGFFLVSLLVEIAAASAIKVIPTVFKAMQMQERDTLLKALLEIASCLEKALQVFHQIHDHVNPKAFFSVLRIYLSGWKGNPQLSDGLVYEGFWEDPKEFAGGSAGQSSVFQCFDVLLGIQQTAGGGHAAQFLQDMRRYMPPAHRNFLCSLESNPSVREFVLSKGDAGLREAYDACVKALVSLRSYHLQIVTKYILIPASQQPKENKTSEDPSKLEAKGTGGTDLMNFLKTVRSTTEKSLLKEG

[3] = molecular target: T1, hIDO-1; assay: Cell-based assay of IDO-1 activity in HEK 293 cells transfected with pcDNA3.1-hIDO-1; design: expressed in transfected cells; host or cells: HEK 293; settings: HEK 293-hIDO-1 cells, 12-h incubation; mean ± SE of two independent experiments; read-out: Cellular IC50

SMILES | inhibition at 20 µM [2] [%] | IC50 [2] [µM] | further results
Cc1cccc2c3c(ccc12)C1=C(C(=O)C3=O)C(C)CO1 (centres unmarked) [Compound 4] | – | – | IC50 [1]: 1.3 µM
Cc1c(-c2c(C)c(O)c3ccccc3c2O)oc2c1C(=O)C(=O)c1c-2ccc2c1CCCC2(C)C [Compound 5] | – | – | IC50 [1]: 4.1 µM
Cc1coc2c1C(=O)C(=O)c1c-2ccc2c1CCCC2(C)C [Compound 6, Tan-IIA, reference compound] | 23.1 ± 1.6 | > 20 | –
CC(=O)OC1CCC(C)(C)c2ccc3c(c21)C(=O)C(=O)c1c(C)coc1-3 (centres unmarked) [Compound 7a] | – | 3.72 ± 0.45 | –
CCC(=O)OC1CCC(C)(C)c2ccc3c(c21)C(=O)C(=O)c1c-3oc(-c2ccsc2)c1C (centres unmarked) [Compound 7c] | 29.3 ± 2.2 | – | –
CCC(=O)OC1CCC(C)(C)c2ccc3c(c21)C(=O)C(=O)c1c-3oc(-c2ccccc2)c1C (centres unmarked) [Compound 7d] | 21.5 ± 1.1 | – | –
CCOC(=O)/C=C/C(=O)OC1CCC(C)(C)c2ccc3c(c21)C(=O)C(=O)c1c(C)coc1-3 (centres unmarked) [Compound 7e] | – | 7.47 ± 3.58 | –
Cc1coc2c1C(=O)C(=O)c1c-2ccc2c1C(OC(=O)C1CCCCC1)CCC2(C)C (centres unmarked) [Compound 7h] | 48 ± 3.2 | – | –
Cc1coc2c1C(=O)C(=O)c1c-2ccc2c1C=CCC2(C)C [Compound 9, 1,6,6-trimethyl-6,7-dihydrophenanthro[1,2-b]furan-10,11-dione] | 61.2 ± 2.1 | – | IC50 [1]: 4.68 µM; IC50 [3]: > 10 µM
Cc1coc2c1C(=O)C(=O)c1c-2ccc2c1C=CC(O)C2(C)C (centres unmarked) [Compound 10, 7-hydroxy-1,6,6-trimethyl-6,7-dihydrophenanthro[1,2-b]furan-10,11-dione] | – | 3.1 ± 1.02 | IC50 [3]: > 10 µM; melting point: 185.2 to 188.5 °C
Cc1coc2c1C(=O)C(=O)c1c-2ccc2c1C=CC(=O)C2(C)C [Compound 11, 1,6,6-trimethylphenanthro[1,2-b]furan-7,10,11(6H)-trione] | – | 0.84 ± 0.26 | IC50 [3]: > 10 µM; melting point: 261.2 to 262.8 °C
CC1(C)C(=O)C=Cc2c1ccc1c2C(=O)C(=O)c2c(CO)coc2-1 [Compound 12, 1-(hydroxymethyl)-6,6-dimethylphenanthro[1,2-b]furan-7,10,11(6H)-trione] | – | 0.37 ± 0.02 | IC50 [3]: 3.85 ± 0.86 µM
Cc1coc2c1C(=O)C(=O)c1c-2ccc2c1C(=O)C=CC2(C)C [Compound 14, 1,6,6-trimethylphenanthro[1,2-b]furan-9,10,11(6H)-trione] | 52.7 ± 2.5 | ~20 | IC50 [3]: > 10 µM; melting point: 158.3 to 160.8 °C
CC1(C)C=CC(=O)c2c1ccc1c2C(=O)C(=O)c2c(CO)coc2-1 [Compound 15, 1-(hydroxymethyl)-6,6-dimethylphenanthro[1,2-b]furan-9,10,11(6H)-trione] | 68 ± 8.6 | ~20 | –

Further lines, with some results ahead:

inhibition at 20 µM [2] [%] | IC50 [2] [µM] | SMILES | further results
– | 4.72 ± 0.3 | CCC(=O)OC1CCC(C)(C)c2ccc3c(c21)C(=O)C(=O)c1c(C)coc1-3 (centres unmarked) [Compound 7b] | –
– | 2.74 ± 0.1 | Cc1coc2c1C(=O)C(=O)c1c-2ccc2c1C(OC(=O)CO)CCC2(C)C (centres unmarked) [Compound 7f] | –
– | 7.05 ± 2.46 | Cc1coc2c1C(=O)C(=O)c1c-2ccc2c1C(OC(=O)C1CC1)CCC2(C)C (centres unmarked) [Compound 7g] | –
54.5 ± 2.3 | – | Cc1coc2c1C(=O)C(=O)c1c-2ccc2c1C(OC(=O)c1ccccc1)CCC2(C)C (centres unmarked) [Compound 7i] | –
60.4 ± 3.9 | – | Cc1coc2c1C(=O)C(=O)c1c-2ccc2c1C(OC(=O)c1cccs1)CCC2(C)C (centres unmarked) [Compound 7j] | –
– | 4.6 ± 2.81 | Cc1coc2c1C(=O)C(=O)c1c-2ccc2c1C(OC(=O)c1ccoc1)CCC2(C)C (centres unmarked) [Compound 7k] | –
– | 5.71 ± 0.47 | Cc1coc2c1C(=O)C(=O)c1c-2ccc2c1C(OC(=O)c1nccs1)CCC2(C)C (centres unmarked) [Compound 7l] | –
– | 4.96 ± 2.02 | Cc1coc2c1C(=O)C(=O)c1c-2ccc2c1C(OC(=O)c1cnccn1)CCC2(C)C (centres unmarked) [Compound 7m] | –
– | 2.83 ± 0.12 | Cc1coc2c1C(=O)C(=O)c1c-2ccc2c1C(O)CCC2(C)C (centres unmarked) [Compound 8] | –
